Measurements as given in ChEMBL document CHEMBL3885861, “Open TG-GATES”.

Species: Rattus norvegicus
Assay: Open TG-GATES - Regimen: Daily Repeat
Assay type: toxicity, organism-based, Sprague-Dawley
Parameters: regimen Daily Repeat, gender Male, age 6 weeks
Conditions: in vivo, po, route gavage; for TP / gamma-GTP / ALP / ALT / AST / BUN / CRE / DBIL / GLC / IP / K / LDH / Na / PL / RALB / TBIL / TC / TG: tissue Plasma; for APTT / Bas / Eos / Fbg / Hb / Ht / Lym / MCH / MCHC / MCV / Mono / Neu / PT / Plat / RBC / Ret / WBC: tissue Blood; for KIDNEY_L / KIDNEY_R / KIDNEY_TOTAL: tissue Kidney; for LIVER: tissue Liver
[1] = 45 mg/kg, […], dose level Low, time 28 day
[2] = 150 mg/kg, 72 h, dose level Middle, time 3 day
[3] = 150 mg/kg, […], dose level Middle, time 7 day
[4] = 150 mg/kg, […], dose level Middle, time 14 day
[5] = 150 mg/kg, […], dose level Middle, time 28 day
[6] = 450 mg/kg, 72 h, dose level High, time 3 day
[7] = 450 mg/kg, […], dose level High, time 7 day
[8] = 450 mg/kg, […], dose level High, time 14 day
[9] = 450 mg/kg, […], dose level High, time 28 day

CC(CCc1ccccc1)NCC(O)c1ccc(O)c(C(N)=O)c1 (stereo not drawn) [LABETALOL]
TP [1]: 6.4 g/dL
gamma-GTP [1]: 1 IU/L
TERMINAL_BW [2]: 253.6 g
APTT [2]: 16.1 s
Bas [2]: 0.2%
Eos [2]: 0.8%
Fbg [2]: 278 mg/dL
Hb [2]: 13.8 g/dL
Ht [2]: 40.7%
Lym [2]: 75%
MCH [2]: 21.7 pg
MCHC [2]: 33.9%
MCV [2]: 64 fL
Mono [2]: 2.6%
Neu [2]: 21.2%
PT [2]: 12.9 s
Plat [2]: 117.8 x10_4/uL
RBC [2]: 636.6 x10_4/ul
Ret [2]: 7.2%
WBC [2]: 104.5 x10_2/uL
KIDNEY_L [2]: 1 g
KIDNEY_R [2]: 1 g
KIDNEY_TOTAL [2]: 2 g
LIVER [2]: 11.7 g
ALP [2]: 2122.4 IU/L
ALT [2]: 47 IU/L
AST [2]: 76.8 IU/L
BUN [2]: 16.6 mg/dL
CRE [2]: 0.2 mg/dL
DBIL [2]: 0.018 mg/dL
GLC [2]: 180 mg/dL
IP [2]: 7.8 mg/dL
K [2]: 4 meq/L
LDH [2]: 65.6 IU/L
Na [2]: 145 meq/L
PL [2]: 155.4 mg/dL
RALB [2]: 2.7 g/dL
TBIL [2]: 0.028 mg/dL
TC [2]: 84.8 mg/dL
TG [2]: 120.6 mg/dL
TP [2]: 5.9 g/dL
gamma-GTP [2]: 1 IU/L
TERMINAL_BW [3]: 288.5 g
TERMINAL_BW [4]: 339.7 g
TERMINAL_BW [5]: 424.9 g
APTT [3]: 17.3 s
Bas [3]: 0%
Eos [3]: 1%
Fbg [3]: 310.4 mg/dL
Hb [3]: 14.8 g/dL
Ht [3]: 42.8%
Lym [3]: 73.4%
MCH [3]: 21.3 pg
MCHC [3]: 34.5%
MCV [3]: 61.9 fL
Mono [3]: 2.6%
Neu [3]: 22.2%
PT [3]: 12.9 s
Plat [3]: 110.9 x10_4/uL
RBC [3]: 693.2 x10_4/ul
Ret [3]: 5.2%
WBC [3]: 92.4 x10_2/uL
APTT [4]: 17.1 s
Bas [4]: 0.2%
Eos [4]: 1.2%
Fbg [4]: 300.4 mg/dL
Hb [4]: 14.9 g/dL
Ht [4]: 42.9%
Lym [4]: 71.2%
MCH [4]: 20.6 pg
MCHC [4]: 34.6%
MCV [4]: 59.5 fL
Mono [4]: 2.2%
Neu [4]: 24.8%
PT [4]: 13.1 s
RBC [4]: 721.4 x10_4/ul
Ret [4]: 4.3%
WBC [4]: 99.2 x10_2/uL
APTT [5]: 19 s
Bas [5]: 0.4%
Eos [5]: 1.4%
Fbg [5]: 286.4 mg/dL
Hb [5]: 15.6 g/dL
Ht [5]: 44.3%
Lym [5]: 71.8%
MCH [5]: 19.8 pg
MCHC [5]: 35.2%
MCV [5]: 56.1 fL
Mono [5]: 3%
Neu [5]: 23.2%
PT [5]: 13.5 s
Plat [5]: 96.8 x10_4/uL
RBC [5]: 789.8 x10_4/ul
Ret [5]: 2.1%
WBC [5]: 110.3 x10_2/uL
KIDNEY_L [3]: 1.2 g
KIDNEY_R [3]: 1.2 g
KIDNEY_TOTAL [3]: 2.4 g
KIDNEY_L [4]: 1.2 g
KIDNEY_R [4]: 1.2 g
KIDNEY_TOTAL [4]: 2.4 g
KIDNEY_L [5]: 1.4 g
KIDNEY_R [5]: 1.4 g
KIDNEY_TOTAL [5]: 2.8 g
LIVER [3]: 12.6 g
LIVER [4]: 13.3 g
LIVER [5]: 15.6 g
ALP [3]: 1724.6 IU/L
ALT [3]: 51 IU/L
AST [3]: 76 IU/L
BUN [3]: 14.8 mg/dL
CRE [3]: 0.2 mg/dL
DBIL [3]: 0.02 mg/dL
GLC [3]: 183.2 mg/dL
K [3]: 3.8 meq/L
LDH [3]: 68.4 IU/L
Na [3]: 142.8 meq/L
PL [3]: 150.8 mg/dL
RALB [3]: 2.8 g/dL
TBIL [3]: 0.034 mg/dL
TC [3]: 78 mg/dL
TG [3]: 141.2 mg/dL
TP [3]: 6.1 g/dL
gamma-GTP [3]: 1 IU/L
ALP [4]: 1359.8 IU/L
ALT [4]: 50.6 IU/L
AST [4]: 74.4 IU/L
BUN [4]: 17.2 mg/dL
CRE [4]: 0.2 mg/dL
DBIL [4]: 0.012 mg/dL
GLC [4]: 174.6 mg/dL
IP [4]: 8.6 mg/dL
K [4]: 3.9 meq/L
LDH [4]: 58.6 IU/L
Na [4]: 145.4 meq/L
PL [4]: 148.6 mg/dL
RALB [4]: 2.8 g/dL
TBIL [4]: 0.026 mg/dL
TC [4]: 81.6 mg/dL
TG [4]: 88.8 mg/dL
TP [4]: 6.3 g/dL
gamma-GTP [4]: 1.4 IU/L
ALP [5]: 865.6 IU/L
ALT [5]: 60.2 IU/L
AST [5]: 78.2 IU/L
BUN [5]: 18.4 mg/dL
CRE [5]: 0.3 mg/dL
DBIL [5]: 0.026 mg/dL
GLC [5]: 185.6 mg/dL
IP [5]: 7.3 mg/dL
K [5]: 3.6 meq/L
LDH [5]: 69.4 IU/L
Na [5]: 143.4 meq/L
PL [5]: 132 mg/dL
RALB [5]: 2.8 g/dL
TBIL [5]: 0.038 mg/dL
TC [5]: 74 mg/dL
TG [5]: 113 mg/dL
TP [5]: 6.2 g/dL
gamma-GTP [5]: 1.2 IU/L
TERMINAL_BW [6]: 240.1 g
APTT [6]: 17 s
Bas [6]: 0%
Eos [6]: 0.8%
Fbg [6]: 275.8 mg/dL
Hb [6]: 13.6 g/dL
Ht [6]: 39.8%
Lym [6]: 79%
MCH [6]: 21.2 pg
MCHC [6]: 34.2%
MCV [6]: 61.9 fL
Mono [6]: 2.4%
Neu [6]: 17.2%
PT [6]: 12.9 s
Plat [6]: 114.3 x10_4/uL
RBC [6]: 644 x10_4/ul
Ret [6]: 6.4%
WBC [6]: 89.1 x10_2/uL
KIDNEY_L [6]: 1 g
KIDNEY_R [6]: 1 g
KIDNEY_TOTAL [6]: 2 g
LIVER [6]: 9.9 g
ALP [6]: 1714 IU/L
ALT [6]: 45.4 IU/L
AST [6]: 61.8 IU/L
BUN [6]: 16.4 mg/dL
CRE [6]: 0.2 mg/dL
DBIL [6]: 0.014 mg/dL
GLC [6]: 162.8 mg/dL
IP [6]: 7.1 mg/dL
K [6]: 4.4 meq/L
LDH [6]: 45.2 IU/L
Na [6]: 142.6 meq/L
PL [6]: 142.8 mg/dL
RALB [6]: 2.6 g/dL
TBIL [6]: 0.038 mg/dL
TC [6]: 88 mg/dL
TG [6]: 43.6 mg/dL
TP [6]: 5.6 g/dL
gamma-GTP [6]: 1 IU/L
TERMINAL_BW [7]: 269.7 g
TERMINAL_BW [8]: 293.4 g
TERMINAL_BW [9]: 333.5 g
APTT [7]: 17.5 s
Bas [7]: 0%
Eos [7]: 0.8%
Fbg [7]: 266.4 mg/dL
Hb [7]: 14.1 g/dL
Ht [7]: 40.5%
Lym [7]: 77.8%
MCH [7]: 21.1 pg
MCHC [7]: 34.7%
MCV [7]: 60.7 fL
Mono [7]: 3.4%
Neu [7]: 17.4%
PT [7]: 13.5 s
Plat [7]: 97.4 x10_4/uL
RBC [7]: 667.6 x10_4/ul
Ret [7]: 4%
WBC [7]: 80.1 x10_2/uL
APTT [8]: 18.2 s
Bas [8]: 0%
Eos [8]: 1%
Fbg [8]: 278 mg/dL
Hb [8]: 15.3 g/dL
Ht [8]: 44.1%
Lym [8]: 78.3%
MCH [8]: 20.6 pg
MCHC [8]: 34.8%
MCV [8]: 59.1 fL
Mono [8]: 2%
Neu [8]: 17.7%
PT [8]: 13.6 s
Plat [8]: 94.8 x10_4/uL
RBC [8]: 745 x10_4/ul
Ret [8]: 2.9%
WBC [8]: 85.7 x10_2/uL
APTT [9]: 19.7 s
Bas [9]: 0%
Eos [9]: 1%
Fbg [9]: 228.5 mg/dL
Hb [9]: 15.9 g/dL
Ht [9]: 44.5%
Lym [9]: 78.5%
MCH [9]: 19.5 pg
MCHC [9]: 35.6%
MCV [9]: 54.7 fL
Mono [9]: 2%
Neu [9]: 18%
PT [9]: 14.7 s
Plat [9]: 79 x10_4/uL
RBC [9]: 813.5 x10_4/ul
Ret [9]: 1%
WBC [9]: 104.3 x10_2/uL
KIDNEY_L [7]: 1.2 g
KIDNEY_R [7]: 1.1 g
KIDNEY_TOTAL [7]: 2.3 g
KIDNEY_L [8]: 1.1 g
KIDNEY_R [8]: 1.2 g
KIDNEY_TOTAL [8]: 2.3 g
KIDNEY_L [9]: 1.4 g
KIDNEY_R [9]: 1.3 g
KIDNEY_TOTAL [9]: 2.6 g
LIVER [7]: 11 g
LIVER [8]: 10.8 g
LIVER [9]: 11.6 g
ALP [7]: 1741.8 IU/L
ALT [7]: 55.8 IU/L
AST [7]: 65.8 IU/L
BUN [7]: 16.2 mg/dL
CRE [7]: 0.2 mg/dL
DBIL [7]: 0.008 mg/dL
GLC [7]: 162.2 mg/dL
K [7]: 4.3 meq/L
LDH [7]: 50 IU/L
Na [7]: 142.4 meq/L
PL [7]: 149.8 mg/dL
RALB [7]: 2.6 g/dL
TBIL [7]: 0.03 mg/dL
TC [7]: 91.2 mg/dL
TG [7]: 37.2 mg/dL
TP [7]: 5.7 g/dL
gamma-GTP [7]: 1.2 IU/L
ALP [8]: 1433.3 IU/L
ALT [8]: 45.3 IU/L
AST [8]: 61.3 IU/L
BUN [8]: 18.7 mg/dL
CRE [8]: 0.3 mg/dL
DBIL [8]: 0.01 mg/dL
GLC [8]: 176.7 mg/dL
K [8]: 3.8 meq/L
LDH [8]: 47.7 IU/L
Na [8]: 145.3 meq/L
PL [8]: 138 mg/dL
RALB [8]: 2.7 g/dL
TBIL [8]: 0.0267 mg/dL
TC [8]: 79.3 mg/dL
TG [8]: 38.3 mg/dL
TP [8]: 6 g/dL
gamma-GTP [8]: 1.3 IU/L
ALP [9]: 1187.5 IU/L
ALT [9]: 54 IU/L
AST [9]: 70 IU/L
BUN [9]: 25 mg/dL
CRE [9]: 0.3 mg/dL
DBIL [9]: 0.02 mg/dL
GLC [9]: 159.5 mg/dL
IP [9]: 7.8 mg/dL
K [9]: 4.2 meq/L
LDH [9]: 38.5 IU/L
Na [9]: 141 meq/L
PL [9]: 125.5 mg/dL
RALB [9]: 2.7 g/dL
TBIL [9]: 0.04 mg/dL
TC [9]: 62 mg/dL
TG [9]: 61.5 mg/dL
TP [9]: 6 g/dL
gamma-GTP [9]: 2 IU/L
